Patent US10945435B2, “Imidazopyrimidine derivatives with sulfur containing phenyl and pyridyl substituents” (SYNGENTA PARTICIPATIONS AG, priority 2017, dated 2021)

Key:
Format in all cases: in vivo
[1] = tested on: Euschistus heros (Neotropical Brown Stink Bug); test: Example B5 Euschistus heros mortality and growth inhibition; settings: 120 h, application rate of 200 ppm, N2 nymphs on sprayed soybean leaves, 5 days after infestation, read-out: effect in at least one of the two categories (mortality or growth inhibition)
Method: Euschistus heros (Neotropical Brown Stink Bug)
Soybean leaves on agar in 24-well microtiter plates were sprayed with aqueous test solutions prepared from 10,000 ppm DMSO stock solutions. After drying the leaves were infested with N2 nymphs. The samples were assessed for mortality and growth inhibition in comparison to untreated samples 5 days after infestation.

[2] = tested on: Myzus persicae (Green Peach Aphid); test: Example B9 Myzus persicae feeding/contact activity; settings: foliar, 144 h, application rate of 200 ppm, mixed-age aphids on sprayed sunflower leaf discs, 6 days after infestation
Method: Myzus persicae (Green Peach Aphid): Feeding/Contact Activity
Sunflower leaf discs were placed onto agar in a 24-well microtiter plate and sprayed with aqueous test solutions prepared from 10,000 ppm DMSO stock solutions. After drying, the leaf discs were infested with an aphid population of mixed ages. The samples were assessed for mortality 6 days after infestation.

[3] = tested on: Euschistus heros (Neotropical Brown Stink Bug); test: Example B7 Euschistus heros feeding/contact activity; settings: 120 h, application rate of 200 ppm, N2 nymphs on sprayed soybean leaves, 5 days after infestation
Method: Euschistus heros (Neotropical Brown Stink Bug): Feeding/Contact Activity
Soybean leaves on agar in 24-well microtiter plates were sprayed with aqueous test solutions prepared from 10,000 ppm DMSO stock solutions. After drying the leaves were infested with N2 nymphs. The samples were assessed for mortality 5 days after infestation.

[4] = tested on: Myzus persicae (Green Peach Aphid); test: Example B10 Myzus persicae systemic activity; settings: 144 h, test rate of 24 ppm, roots of infested pea seedlings in test solution, 6 days
Method: Myzus persicae (Green Peach Aphid). Systemic Activity
Roots of pea seedlings infested with an aphid population of mixed ages were placed directly into aqueous test solutions prepared from 10,000 DMSO stock solutions. The samples were assessed for mortality 6 days after placing seedlings into test solutions.

[5] = tested on: Diabrotica balteata (Corn Root Worm); test: Example B4 Diabrotica balteata mortality; settings: 96 h, application rate of 200 ppm, L2 larvae on sprayed maize sprouts, 4 days after infestation
Method: Diabrotica Balteata (Corn Root Worm):
(§1) Maize sprouts placed onto an agar layer in 24-well microtiter plates were treated with aqueous test solutions prepared from 10,000 ppm DMSO stock solutions by spraying. After drying, the plates were infested with L2 larvae (6 to 10 per well). The samples were assessed for mortality 4 days after infestation.

[6] = tested on: Plutella xylostella (Diamond Back Moth); test: Example B13 Plutella xylostella mortality and growth inhibition; settings: 120 h, application rate of 200 ppm, L2 larvae on treated artificial diet, 5 days after infestation, read-out: effect in at least one of the two categories (mortality or growth inhibition)
Method: Plutella xylostella (Diamond Back Moth)
(§2) 24-well microtiter plates with artificial diet were treated with aqueous test solutions prepared from 10,000 ppm DMSO stock solutions by pipetting. After drying, the plates were infested with L2 larvae (10 to 15 per well). The samples were assessed for mortality and growth inhibition in comparison to untreated samples 5 days after infestation.

[7] = tested on: Plutella xylostella (Diamond Back Moth); test: Example B11 Plutella xylostella growth inhibition activity; settings: 120 h, application rate of 200 ppm, L2 larvae on treated artificial diet, 5 days after infestation
Method: Plutella xylostella (Diamond Back Moth): Growth Inhibition Activity
as §2, with “for” for “for mortality and”, “infestation. Control of Plutella xylostella by a test sample is given when the growth inhibition is higher than the untreated sample.” for “infestation.”

[8] = tested on: Diabrotica balteata (Corn Root Worm); test: Example B2 Diabrotica balteata mortality and growth inhibition; settings: 96 h, application rate of 200 ppm, L2 larvae on sprayed maize sprouts, 4 days after infestation, read-out: effect in at least one of the two categories (mortality or growth inhibition)
Method: Diabrotica balteata (Corn Root Worm)
as §1, with “mortality and growth inhibition in comparison to untreated samples” for “mortality”

[9] = tested on: Bemisia tabaci (Cotton White Fly); test: Example B1 Bemisia tabaci feeding/contact activity; settings: foliar, 144 h, application rate of 200 ppm, adult white flies on sprayed cotton leaf discs, 6 days after incubation
Method: Bemisia tabaci (Cotton White Fly): Feeding/Contact Activity
Cotton leaf discs were placed on agar in 24-well microtiter plates and sprayed with aqueous test solutions prepared from 10,000 ppm DMSO stock solutions. After drying the leaf discs were infested with adult white flies. The samples were checked for mortality 6 days after incubation.

[10] = tested on: Spodoptera littoralis (Egyptian Cotton Leaf Worm); test: Example B14 Spodoptera littoralis anti-feeding activity; settings: foliar, 72 h, application rate of 200 ppm, L1 larvae on sprayed cotton leaf discs, 3 days after infestation, read-out: control (anti-feeding effect)
Method: Spodoptera littoralis (Egyptian Cotton Leaf Worm): Anti-Feeding Activity
Cotton leaf discs were placed onto agar in 24-well microtiter plates and sprayed with aqueous test solutions prepared from 10,000 ppm DMSO stock solutions. After drying the leaf discs were infested with five L1 larvae. The samples were assessed for anti-feeding effect in comparison to untreated samples 3 days after infestation. Control of Spodoptera littoralis by a test sample is given when the anti-feedant effect is higher than the untreated sample.

[11] = tested on: Spodoptera littoralis (Egyptian Cotton Leaf Worm); test: Example B16 Spodoptera littoralis feeding/contact activity; settings: foliar, 72 h, application rate of 200 ppm, L1 larvae on sprayed cotton leaf discs, 3 days after infestation
Method: Spodoptera littoralis (Egyptian Cotton Leaf Worm): Feeding/Contact Activity
Cotton leaf discs were placed onto agar in 24-well microtiter plates and sprayed with aqueous test solutions prepared from 10,000 ppm DMSO stock solutions. After drying the leaf discs were infested with five L1 larvae. The samples were assessed for mortality 3 days after infestation.

[12] = tested on: Plutella xylostella (Diamond Back Moth); test: Example B12 Plutella xylostella feeding/contact activity; settings: 120 h, application rate of 200 ppm, L2 larvae on treated artificial diet, 5 days after infestation
Method: Plutella xylostella (Diamond Back Moth): Feeding/Contact Activity
24-well microtiter plates with artificial diet were treated with aqueous test solutions prepared from 10,000 ppm DMSO stock solutions by pipetting. After drying, the plates were infested with L2 larvae (10 to 15 per well). The samples were assessed for mortality 5 days after infestation.

[13] = tested on: Frankliniella occidentalis (Western Flower Thrips); test: Example B8 Frankliniella occidentalis feeding/contact activity; settings: foliar, 168 h, application rate of 200 ppm, mixed-age population on sprayed sunflower leaf discs, 7 days after infestation
Method: Frankliniella occidentalis (Western Flower Thrips): Feeding/Contact Activity
Sunflower leaf discs were placed on agar in 24-well microtiter plates and sprayed with aqueous test solutions prepared from 10,000 DMSO stock solutions. After drying the leaf discs were infested with a Frankliniella population of mixed ages. The samples were assessed for mortality 7 days after infestation.

CCS(=O)(=O)c1cc(OCS(C)(=O)=O)cnc1-c1cn2cnc(C(F)(F)F)cc2n1 [Compound P23, 2-[3-ethylsulfonyl-5-(methylsulfonylmethoxy)-2-pyridyl]-7-(trifluoromethyl)imidazo[1,2-c]pyrimidine]
≥ 80%: percent effect (mortality or growth inhibition) at 200 ppm [1] | mortality at 200 ppm [2] | mortality at 200 ppm [3] | mortality at 24 ppm [4]

CCS(=O)(=O)c1cc(OCC(F)F)cnc1-c1cn2cnc([S+]([O-])C(F)(F)F)cc2n1 (stereo not drawn) [Compound P3, 2-[5-(2,2-difluoroethoxy)-3-ethylsulfonyl-2-pyridyl]-7-(trifluoromethylsulfinyl)imidazo[1,2-c]pyrimidine]
≥ 80%: mortality at 200 ppm [5] | percent effect (mortality or growth inhibition) at 200 ppm [6] | percent effect (mortality or growth inhibition) at 200 ppm [1] | mortality at 200 ppm [2] | mortality at 200 ppm [3] | inhibition at 200 ppm [7] | percent effect (mortality or growth inhibition) at 200 ppm [8]

CCS(=O)(=O)c1cc(OC(F)F)cnc1-c1cn2cnc(C(F)(F)F)cc2n1 [Compound P21, 2-[5-(difluoromethoxy)-3-ethylsulfonyl-2-pyridyl]-7-(trifluoromethyl)imidazo[1,2-c]pyrimidine]
≥ 80%: mortality at 200 ppm [5] | percent effect (mortality or growth inhibition) at 200 ppm [6] | mortality at 200 ppm [9] | percent effect (mortality or growth inhibition) at 200 ppm [1] | pest or weed control at 200 ppm [10] | mortality at 200 ppm [2] | mortality at 200 ppm [3] | inhibition at 200 ppm [7] | mortality at 200 ppm [11] | mortality at 200 ppm [12] | percent effect (mortality or growth inhibition) at 200 ppm [8]

CCS(=O)(=O)c1cc(OC(C)(C)C#N)cnc1-c1cn2cnc(C(F)(F)C(F)(F)F)cc2n1 [Compound P18, 2-[[5-ethylsulfonyl-6-[7-(1,1,2,2,2-pentafluoroethyl)imidazo[1,2-c]pyrimidin-2-yl]-3-pyridyl]oxy]-2-methyl-propanenitrile]
≥ 80%: mortality at 200 ppm [5] | percent effect (mortality or growth inhibition) at 200 ppm [6] | mortality at 200 ppm [9] | percent effect (mortality or growth inhibition) at 200 ppm [1] | pest or weed control at 200 ppm [10] | mortality at 200 ppm [2] | mortality at 200 ppm [3] | inhibition at 200 ppm [7] | mortality at 200 ppm [11] | mortality at 200 ppm [12] | percent effect (mortality or growth inhibition) at 200 ppm [8] | mortality at 200 ppm [13]

CCS(=O)(=O)c1cc(OCC(F)(F)F)cnc1-c1cn2cnc(SC(F)(F)F)cc2n1 [Compound P1, 2-[3-ethylsulfonyl-5-(2,2,2-trifluoroethoxy)-2-pyridyl]-7-(trifluoromethylsulfanyl)imidazo[1,2-c]pyrimidine]
≥ 80%: mortality at 200 ppm [5] | percent effect (mortality or growth inhibition) at 200 ppm [6] | mortality at 200 ppm [9] | percent effect (mortality or growth inhibition) at 200 ppm [1] | pest or weed control at 200 ppm [10] | mortality at 200 ppm [2] | mortality at 200 ppm [3] | inhibition at 200 ppm [7] | mortality at 200 ppm [11] | mortality at 200 ppm [12] | percent effect (mortality or growth inhibition) at 200 ppm [8]

CCS(=O)(=O)c1cc(OCC(F)(F)F)cnc1-c1cn2cnc(C(F)(F)F)cc2n1 [Compound P6, 2-[3-ethylsulfonyl-5-(2,2,2-trifluoroethoxy)-2-pyridyl]-7-(trifluoromethyl)imidazo[1,2-c]pyrimidine]
≥ 80%: mortality at 200 ppm [5] | percent effect (mortality or growth inhibition) at 200 ppm [6] | mortality at 200 ppm [9] | percent effect (mortality or growth inhibition) at 200 ppm [1] | pest or weed control at 200 ppm [10] | mortality at 200 ppm [2] | mortality at 200 ppm [3] | inhibition at 200 ppm [7] | mortality at 200 ppm [11] | mortality at 200 ppm [12] | percent effect (mortality or growth inhibition) at 200 ppm [8] | mortality at 24 ppm [4]

CCS(=O)(=O)c1cc(OC(C)C)cnc1-c1cn2cnc(SC(F)(F)F)cc2n1 [Compound P2, 2-(3-ethylsulfonyl-5-isopropoxy-2-pyridyl)-7-(trifluoromethylsulfanyl)imidazo[1,2-c]pyrimidine]
≥ 80%: mortality at 200 ppm [5] | percent effect (mortality or growth inhibition) at 200 ppm [6] | percent effect (mortality or growth inhibition) at 200 ppm [1] | pest or weed control at 200 ppm [10] | mortality at 200 ppm [3] | inhibition at 200 ppm [7] | mortality at 200 ppm [11] | mortality at 200 ppm [12] | percent effect (mortality or growth inhibition) at 200 ppm [8]

CCS(=O)(=O)c1cc(OC(C)C)cnc1-c1cn2cnc(C(F)(F)F)cc2n1 [Compound P7, 2-(3-ethylsulfonyl-5-isopropoxy-2-pyridyl)-7-(trifluoromethyl)imidazo[1,2-c]pyrimidine]
≥ 80%: mortality at 200 ppm [5] | percent effect (mortality or growth inhibition) at 200 ppm [6] | percent effect (mortality or growth inhibition) at 200 ppm [1] | pest or weed control at 200 ppm [10] | mortality at 200 ppm [2] | mortality at 200 ppm [3] | inhibition at 200 ppm [7] | mortality at 200 ppm [11] | mortality at 200 ppm [12] | percent effect (mortality or growth inhibition) at 200 ppm [8]

CCS(=O)(=O)c1cc(OCCSC)cnc1-c1cn2cnc(C(F)(F)F)cc2n1 [Compound P15, 2-[3-ethylsulfonyl-5-(2-methylsulfanylethoxy)-2-pyridyl]-7-(trifluoromethyl)imidazo[1,2-c]pyrimidine]
≥ 80%: mortality at 200 ppm [9] | percent effect (mortality or growth inhibition) at 200 ppm [1] | mortality at 200 ppm [2] | mortality at 200 ppm [3] | mortality at 24 ppm [4]
